Laboratory results: PubChem BioAssay AID1845203 (Molecular Pharmacology Branch, DTP, NCI, 2023)

System: G-401 tumor spheroids, viability % test/control
Test: Anticancer human tumor G-401 cell line growth inhibition;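 further: spheroids exposed to compound for 7 days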;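 on viability, T/C: 100% = DMSO vehicle-treated spheroids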
Conditions: spheroids with HUVEC and MSC; for IC50: curve of first compound; for viability, T/C: stronger effect = lower value
Source text: Multicellular complex tumor spheroid response to DNA repair inhibitors in combination with DNA-damaging drugs
This study explores the anticancer activities of DNA-damaging drugs and inhibitors of DNA damage repair, both as single agents and in combinations. Complex tumor spheroids comprised of malignant cells, endothelial cells and mesenchymal stem cells served as an in vitro model for human solid tumors. This model system incorporates physiologically relevant features and patient-derived or established malignant cell lines with clinically relevant genetic alterations from many tumor types. Twenty-six patient-derived or established malignant cell lines were evaluated representing sarcoma, melanoma, small cell lung cancer (SCLC), non-small cell lung cancer (NSCLC), as well as bladder, ovarian and pancreatic cancers. The concentration ranges selected for each drug and investigational agent were based upon clinically achievable concentrations if the clinical Cmax of the agent was known.
Compounds. The drugs and compounds olaparib (NSC753686), talazoparib (NSC767125), berzosertib (NSC777718), elimusertib (NSC800525), nedisertib (NSC802822), VX-984 (NSC792969), AZD-1390 (NSC803789), temozolomide (NSC362856), topotecan (NSC609699), trabectedin (NSC813783), staurosporine (NSC755774), and gemcitabine (NSC613327) were obtained from the National Cancer Institute (NCI) Developmental Therapeutics Program Chemical Repository. The FDA-approved anticancer drug set is available from the Developmental Therapeutics Program at https://dtp.cancer.gov/organization/dscb/obtaining/available_plates.htm. […] The stock solutions were prepared in dimethyl sulfoxide (DMSO, Sigma-Aldrich, St. Louis, MO, cat. D2650) at 400-fold the tested concentration and stored at -70 degrees C. Prior to their use, the stock solutions were diluted in fresh medium and the final DMSO concentration in the assay was 0.25% (v/v). All drugs and investigational agents were tested over a range starting from a high concentration at or near the clinical Cmax and decreasing in half-log increments. If the clinical Cmax for an agent had not been determined, the highest concentration tested was 10 microM.
Cell Lines. The patient-derived cancer cell (PDC) lines: 156681-154-R-J1-PDC, 283228-195-R-J1-PDC, 287954-098-R-J1-PDC, 292921-168-R-J2-PDC, 349418-098-R-PDC, 425362-245-T-J1-PDC, 556581-035-R-J1-PDC, and BL0293-F563-PDC were received from the NCI Patient-Derived Models Repository (PDMR, https://pdmr.cancer.gov). The established cell lines HS-SY-2 (RRID:CVCL_8719), MPNST, and SYO-1 (RRID:CVCL_7146) were obtained from the Sloan Kettering Institute. The alveolar soft parts sarcoma cell line ASPS-1 (RRID:CVCL_S738) was established at the NCI and grown from internal seed stocks. The following established cell lines were purchased from the American Type Culture Collection (ATCC, Manassas, VA): G-401 (ATCC, cat. CRL-1441, RRID:CVCL_0270), SW982 (ATCC, cat. HTB-93, RRID:CVCL_1734), VA-ES-BJ (ATCC, cat. CRL-2138, RRID:CVCL_1785), NCI-H719 (ATCC, cat. CRL-5837, RRID:CVCL_1582), NCI-H196 (ATCC, cat. CRL-5823, RRID:CVCL_1509), NCI-H841 (ATCC, cat. CRL-5845, RRID:CVCL_1595), NCI-H1618 (ATCC, cat. CRL-5879, RRID:CVCL_1480), NCI-H1876 (ATCC, cat. CRL-5902, RRID:CVCL_1503), DMS 114 (ATCC, cat. CRL-2066; RRID:CVCL_1174), NCI-H211 (ATCC, cat. CRL-5824; RRID:CVCL_1529), and SW 1271 (ATCC, cat. CRL-2177, RRID:CVCL_1716). The small cell lung cancer cell line COR-L88 was purchased from Sigma-Aldrich (cat. 92031917-1VL, RRID:CVCL_1141). The non-small cell lung cancer cell lines NCI-H226 (RRID:CVCL_1544) and NCI-H322M (RRID:CVCL_1557) were established at the NCI and grown from internal seed stocks. Pooled donor human umbilical vein endothelial cells (HUVEC, Lonza, cat. CC-2519) and human mesenchymal stem cells (hMSC, Lonza, cat. PT-2501) were purchased from Lonza (Walkersville, MD).
Cell Culture. All cells were maintained in an incubator at 37 degrees C and 5% CO2 with 95% humidity. […]

[1] = second compound 0.003 µM, first compound 0.0949 µM
[2] = second compound 0.003 µM, first compound 0.3 µM
[3] = second compound 0.003 µM, first compound 0.949 µM
[4] = second compound 0.003 µM, first compound 3 µM

Compound: O=C(c1cc(Cc2n[nH]c(=O)c3ccccc23)ccc1F)N1CCN(C(=O)C2CC2)CC1 + CC[C@@]1(O)C(=O)OCc2c1cc1n(c2=O)Cc2cc3c(CN(C)C)c(O)ccc3nc2-1
- IC50 (second compound 0.003 µM): 991 nM
- IC50 (second compound 0.00949 µM): < 94.9 nM
- IC50 (second compound 0.03 µM): < 94.9 nM
- IC50 (second compound 0.0949 µM): < 94.9 nM
- IC50 (second compound 0.3 µM): < 94.9 nM
- viability, T/C [1]: 49.4%
- viability, T/C [2]: 51.8%
- viability, T/C [3]: 52.1%
- viability, T/C [4]: 43.9%
- viability, T/C (second compound 0.003 µM, first compound 9.49 µM): 28.3%
- viability, T/C (second compound 0.003 µM, first compound 30 µM): 13.6%
- viability, T/C (second compound 0.00949 µM, first compound 0.0949 µM): 18.2%
- viability, T/C (second compound 0.00949 µM, first compound 0.3 µM): 19.1%
- viability, T/C (second compound 0.00949 µM, first compound 0.949 µM): 24%
- viability, T/C (second compound 0.00949 µM, first compound 3 µM): 18.4%
- viability, T/C (second compound 0.00949 µM, first compound 9.49 µM): 17.2%
- viability, T/C (second compound 0.00949 µM, first compound 30 µM): 12.4%
- viability, T/C (second compound 0.03 µM, first compound 0.0949 µM): 9.43%
- viability, T/C (second compound 0.03 µM, first compound 0.3 µM): 10.1%
- viability, T/C (second compound 0.03 µM, first compound 0.949 µM): 10.1%
- viability, T/C (second compound 0.03 µM, first compound 3 µM): 9.87%
- viability, T/C (second compound 0.03 µM, first compound 9.49 µM): 9.41%
- viability, T/C (second compound 0.03 µM, first compound 30 µM): 9.05%
- viability, T/C (second compound 0.0949 µM, first compound 0.0949 µM): 7.02%
- viability, T/C (second compound 0.0949 µM, first compound 0.3 µM): 6.74%
- viability, T/C (second compound 0.0949 µM, first compound 0.949 µM): 7.7%
- viability, T/C (second compound 0.0949 µM, first compound 3 µM): 7.1%
- viability, T/C (second compound 0.0949 µM, first compound 9.49 µM): 6.71%
- viability, T/C (second compound 0.0949 µM, first compound 30 µM): 7.06%
- viability, T/C (second compound 0.3 µM, first compound 0.0949 µM): 4.94%
- viability, T/C (second compound 0.3 µM, first compound 0.3 µM): 5.39%
- viability, T/C (second compound 0.3 µM, first compound 0.949 µM): 5.37%
- viability, T/C (second compound 0.3 µM, first compound 3 µM): 6.35%
- viability, T/C (second compound 0.3 µM, first compound 9.49 µM): 5.22%
- viability, T/C (second compound 0.3 µM, first compound 30 µM): 6.07%

Compound: Cc1sc2c(c1C)C(c1ccc(Cl)cc1)=NC(CC(=O)Nc1ccc(O)cc1)c1nnc(C)n1-2 (stereo not given) + COc1cc2c(cc1O)CCNC21CSC2c3c(OC(C)=O)c(C)c4c(c3C(COC1=O)N1C(O)C3Cc5cc(C)c(OC)c(O)c5C(C21)N3C)OCO4
- IC50 (second compound 30 pM): 160 nM
- IC50 (second compound 94.9 pM): 115 nM
- IC50 (second compound 0.0003 µM): < 9.49 nM
- IC50 (second compound 0.000949 µM): < 9.49 nM
- IC50 (second compound 0.003 µM): < 9.49 nM
- viability, T/C (second compound 30 pM, first compound 0.00949 µM): 102%
- viability, T/C (second compound 30 pM, first compound 0.03 µM): 83.3%
- viability, T/C (second compound 30 pM, first compound 0.0949 µM): 63.9%
- viability, T/C (second compound 30 pM, first compound 0.3 µM): 34.8%
- viability, T/C (second compound 30 pM, first compound 0.949 µM): 17.8%
- viability, T/C (second compound 30 pM, first compound 3 µM): 8.07%
- viability, T/C (second compound 94.9 pM, first compound 0.00949 µM): 92.8%
- viability, T/C (second compound 94.9 pM, first compound 0.03 µM): 74.7%
- viability, T/C (second compound 94.9 pM, first compound 0.0949 µM): 55.1%
- viability, T/C (second compound 94.9 pM, first compound 0.3 µM): 31.3%
- viability, T/C (second compound 94.9 pM, first compound 0.949 µM): 12%
- viability, T/C (second compound 94.9 pM, first compound 3 µM): 5.01%
- viability, T/C (second compound 0.0003 µM, first compound 0.00949 µM): 35.1%
- viability, T/C (second compound 0.0003 µM, first compound 0.03 µM): 38.7%
- viability, T/C (second compound 0.0003 µM, first compound 0.0949 µM): 27.1%
- viability, T/C (second compound 0.0003 µM, first compound 0.3 µM): 9.01%
- viability, T/C (second compound 0.0003 µM, first compound 0.949 µM): 4.45%
- viability, T/C (second compound 0.0003 µM, first compound 3 µM): 1.34%
- viability, T/C (second compound 0.000949 µM, first compound 0.00949 µM): 19.8%
- viability, T/C (second compound 0.000949 µM, first compound 0.03 µM): 3.94%
- viability, T/C (second compound 0.000949 µM, first compound 0.0949 µM): 19.1%
- viability, T/C (second compound 0.000949 µM, first compound 0.3 µM): 1.51%
- viability, T/C (second compound 0.000949 µM, first compound 0.949 µM): 0.15%
- viability, T/C (second compound 0.000949 µM, first compound 3 µM): 0.16%
- viability, T/C (second compound 0.003 µM, first compound 0.00949 µM): 0.08%
- viability, T/C (second compound 0.003 µM, first compound 0.03 µM): 0.07%
- viability, T/C [1]: 0.12%
- viability, T/C [2]: 0.13%
- viability, T/C [3]: 0.12%
- viability, T/C [4]: 0.24%
